Data on 20 compounds can be found in US9040528B2, “Chemical compounds 542” (AstraZeneca AB, priority 2008, dated 2015).

The target of the first assay is Escherichia coli DNA gyrase A/B tetramer (Escherichia coli (strain K12), UniProt P0AES4+P0AES6). As to the kind of experiment: DNA gyrase supercoiling activity fluorescence polarisation assay. The assay is classed as biochemical.
Details: not given
In short, it runs like this:
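Supercoiling reactions quenched with 40 nM 5′-BODIPY-FL triplex-forming oligonucleotide probe in pH 3.5 NaCl/sodium acetate buffer; after 60 min, fluorescence anisotropy read (ex 485/em 535 nm). IC50 by nonlinear regression, normalised to 0.8% DMSO (100% activity) and 5 μM ciprofloxacin (0% activity).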
A general note: In fluorescence polarisation assays a small probe gives low polarisation when free and higher when bound to something large.
In the case of `C[C@@H]1CN2c3c(cc4c(C(N)=O)noc4c3F)CC3(C(=O)NC(=O)NC3=O)[C@H]2[C@H](C)O1` (relative stereo) [Example 142, (2R,4S,4aS)-rel-11-fluoro-2,4-dimethyl-2′,4′,6′-trioxo-2,2′,3′,4,4a,4′,6,6′-octahydro-^1H,1′H-spiro[isoxazolo[4,5-g][1,4]oxazino[4,3-a]quinoline-5,5′-pyrimidine]-8-carboxamide], the IC50 is 0.3 µM.

The same assay, now with this note: 5 nM enzyme, relaxed plasmid, 0.3 mM ATP, ambient temperature; read-out: E. coli DNA gyrase supercoiling IC50.
As for `CCN(C)C(=O)c1noc2c(F)c3c(cc12)CC1(C(=O)NC(=O)NC1=O)[C@H]1[C@H](C)O[C@H](C)CN31` (relative stereo) [Example 139, (2R,4S,4aS)-rel-N-ethyl-11-fluoro-N,2,4-trimethyl-2′,4′,6′-trioxo-2,2′,3′,4,4a,4′,6,6′-octahydro-1H,1′H-spiro[isoxazolo[4,5-g][1,4]oxazino[4,3-a]quinoline-5,5′-pyrimidine]-8-carboxamide], the IC50 was 7.6 µM. Still for that read-out and setting: the figure for `CNC(=O)c1noc2c(F)c3c(cc12)CC1(C(=O)NC(=O)NC1=O)[C@H]1[C@H](C)O[C@H](C)CN31` (relative stereo) [Example 140, (2R,4S,4aS)-rel-11-fluoro-N,2,4-trimethyl-2′,4′,6′-trioxo-2,2′,3′,4,4a,4′,6,6′-octahydro-1H,1′H-spiro[isoxazolo[4,5-g][1,4]oxazino[4,3-a]quinoline-5,5′-pyrimidine]-8-carboxamide] is 1.1 µM; for `C[C@@H]1CN2c3c(cc4c(C(=O)N5CCN(C)C(=O)C5)noc4c3F)CC3(C(=O)NC(=O)NC3=O)[C@H]2[C@H](C)O1` (relative stereo) [Example 141, (2R,4S,4aS)-rel-11-fluoro-2,4-dimethyl-8-(4-methyl-3-oxopiperazine-1-carbonyl)-2,4,4a,6-tetrahydro-1H,1′H-spiro[isoxazolo[4,5-g][1,4]oxazino[4,3-a]quinoline-5,5′-pyrimidine]-2′,4′,6′(3′H)-trione] it is 4.9 µM. Same read-out and setting: the figure for `COCCNC(=O)c1noc2c(F)c3c(cc12)CC1(C(=O)NC(=O)NC1=O)[C@H]1[C@H](C)O[C@H](C)CN31` (relative stereo) [Example 143, (2R,4S,4aS)-rel-11-fluoro-N-(2-methoxyethyl)-2,4-dimethyl-2′,4′,6′-trioxo-2,2′,3′,4,4a,4′,6,6′-octahydro-1H,1′H-spiro[isoxazolo[4,5-g][1,4]oxazino[4,3-a]quinoline-5,5′-pyrimidine]-8-carboxamide] is 1 µM; for `C[C@@H]1CN2c3c(cc4c(C(=O)NC(C)(C)C)noc4c3F)CC3(C(=O)NC(=O)NC3=O)[C@H]2[C@H](C)O1` (relative stereo) [Example 144, (2R,4S,4aS)-rel-N-tert-butyl-11-fluoro-2,4-dimethyl-2′,4′,6′-trioxo-2,2′,3′,4,4a,4′,6,6′-octahydro-1H,1′H-spiro[isoxazolo[4,5-g][1,4]oxazino[4,3-a]quinoline-5,5′-pyrimidine]-8-carboxamide] it is 2.9 µM; for `C[C@@H]1CN2c3c(cc4c(C(=O)N5CCS(=O)(=O)CC5)noc4c3F)CC3(C(=O)NC(=O)NC3=O)[C@H]2[C@H](C)O1` (relative stereo) [Example 145, (2R,4S,4aS)-rel-8-[(1,1-dioxidothiomorpholin-4-yl)carbonyl]-11-fluoro-2,4-dimethyl-1,2,4,4a-tetrahydro-2′H,6H-spiro[isoxazolo[4,5-g][1,4]oxazino[4,3-a]quinoline-5,5′-pyrimidine]-2′,4′,6′(1′H,3′H)-trione] it is 5.2 µM.

Take `C[C@@H]1CN2c3c(cc4c(C(=O)NC5CCOCC5)noc4c3F)CC3(C(=O)NC(=O)NC3=O)[C@H]2[C@H](C)O1` (relative stereo) [Example 146, (2R,4S,4aS)-rel-11-fluoro-2,4-dimethyl-2′,4′,6′-trioxo-N-(tetrahydro-2H-pyran-4-yl)-2,2′,3′,4,4a,4′,6,6′-octahydro-1H,1′H-spiro[isoxazolo[4,5-g][1,4]oxazino[4,3-a]quinoline-5,5′-pyrimidine]-8-carboxamide]: the IC50 was found to be 4.9 µM. On the same count and under the same terms, next, `CC(C)NC(=O)c1noc2c(F)c3c(cc12)CC1(C(=O)NC(=O)NC1=O)[C@H]1[C@H](C)O[C@H](C)CN31` (relative stereo) [Example 147, (2R,4S,4aS)-rel-11-fluoro-N-isopropyl-2,4-dimethyl-2′,4′,6′-trioxo-2,2′,3′,4,4a,4′,6,6′-octahydro-1H,1′H-spiro[isoxazolo[4,5-g][1,4]oxazino[4,3-a]quinoline-5,5′-pyrimidine]-8-carboxamide]: 3.9 µM; `C[C@@H]1CN2c3c(cc4c(-c5ncccn5)noc4c3F)CC3(C(=O)NC(=O)NC3=O)[C@H]2[C@H](C)O1` (relative stereo) [Example 148, (2R,4S,4aS)-rel-11-fluoro-2,4-dimethyl-8-(pyrimidin-2-yl)-1,2,4,4a-tetrahydro-2′H,6H-spiro[1,4-oxazino[4,3-a][1,2]oxazolo[4,5-g]quinoline-5,5′-pyrimidine]-2′,4′,6′(1′H,3′H)-trione]: 0.9 µM; `Cc1noc2c(F)c3c(cc12)CC1(C(=O)NC(=O)NC1=O)[C@H]1[C@H](C)O[C@H](C(F)(F)F)CN31` (relative stereo) [Example 149, (2S,4S,4aS)-rel-11-fluoro-4,8-dimethyl-2-(trifluoromethyl)-1,2,4,4a-tetrahydro-2′H,6H-spiro[isoxazolo[4,5-g][1,4]oxazino[4,3-a]quinoline-5,5′-pyrimidine]-2′,4′,6′(1′H,3′H)-trione]: 4.4 µM.

In the case of `C[C@@H]1CN2c3c(cc4c(C(=O)NC5CC5)noc4c3F)CC3(C(=O)NC(=O)NC3=O)[C@H]2[C@H](C)O1` (relative stereo) [Example 150, (2R,4S,4aS)-rel-N-cyclopropyl-11-fluoro-2,4-dimethyl-2′,4′,6′-trioxo-2,2′,3′,4,4a,4′,6,6′-octahydro-1H,1′H-spiro[isoxazolo[4,5-g][1,4]oxazino[4,3-a]quinoline-5,5′-pyrimidine]-8-carboxamide], the IC50 is 1.3 µM. Still for that read-out and setting: the figure for `COC1CCN(C(=O)c2noc3c(F)c4c(cc23)CC2(C(=O)NC(=O)NC2=O)[C@H]2[C@H](C)O[C@H](C)CN42)CC1` (relative stereo) [Example 151, (2R,4S,4aS)-rel-11-fluoro-8-(4-methoxypiperidine-1-carbonyl)-2,4-dimethyl-2,4,4a,6-tetrahydro-1H,1′H-spiro[isoxazolo[4,5-g][1,4]oxazino[4,3-a]quinoline-5,5′-pyrimidine]-2′,4′,6′(3′H)-trione] is 5.5 µM; for `C[C@@H]1CN2c3c(cc4c(C(=O)NCC5CC5)noc4c3F)CC3(C(=O)NC(=O)NC3=O)[C@H]2[C@H](C)O1` (relative stereo) [Example 152, (2R,4S,4aS)-rel-N-(cyclopropylmethyl)-11-fluoro-2,4-dimethyl-2′,4′,6′-trioxo-2,2′,3′,4,4a,4′,6,6′-octahydro-1H,1′H-spiro[isoxazolo[4,5-g][1,4]oxazino[4,3-a]quinoline-5,5′-pyrimidine]-8-carboxamide] it is 2.1 µM. The same measure, in the same setting: next, `C[C@@H]1CN2c3c(cc4c(C(=O)N5CCCCO5)noc4c3F)CC3(C(=O)NC(=O)NC3=O)[C@H]2[C@H](C)O1` (relative stereo) [Example 153, (2R,4S,4aS)-rel-11-fluoro-2,4-dimethyl-8-(1,2-oxazinan-2-ylcarbonyl)-1,2,4,4a-tetrahydro-2′H,6H-spiro[isoxazolo[4,5-g][1,4]oxazino[4,3-a]quinoline-5,5′-pyrimidine]-2′,4′,6′(1′H,3′H)-trione]: 3.7 µM. On the same count and under the same terms, next, `C[C@@H]1CN2c3c(cc4c(C(=O)NCc5cccs5)noc4c3F)CC3(C(=O)NC(=O)NC3=O)[C@H]2[C@H](C)O1` (relative stereo) [Example 154, (2R,4S,4aS)-rel-11-fluoro-2,4-dimethyl-2′,4′,6′-trioxo-N-(thiophen-2-ylmethyl)-2,2′,3′,4,4a,4′,6,6′-octahydro-1H,1′H-spiro[isoxazolo[4,5-g][1,4]oxazino[4,3-a]quinoline-5,5′-pyrimidine]-8-carboxamide]: 1.5 µM; `C[C@@H]1CN2c3c(cc4c(C(=O)NCc5ccncc5)noc4c3F)CC3(C(=O)NC(=O)NC3=O)[C@H]2[C@H](C)O1` (relative stereo) [Example 155, (2R,4S,4aS)-rel-11-fluoro-2,4-dimethyl-2′,4′,6′-trioxo-N-(pyridin-4-ylmethyl)-2,2′,3′,4,4a,4′,6,6′-octahydro-1H,1′H-spiro[isoxazolo[4,5-g][1,4]oxazino[4,3-a]quinoline-5,5′-pyrimidine]-8-carboxamide]: 1.2 µM.

Turning to `C[C@@H]1CN2c3c(cc4c(C(=O)NCC5CCCCC5)noc4c3F)CC3(C(=O)NC(=O)NC3=O)[C@H]2[C@H](C)O1` (relative stereo) [Example 156, (2R,4S,4aS)-rel-N-(cyclohexylmethyl)-11-fluoro-2,4-dimethyl-2′,4′,6′-trioxo-2,2′,3′,4,4a,4′,6,6′-octahydro-1H,1′H-spiro[isoxazolo[4,5-g][1,4]oxazino[4,3-a]quinoline-5,5′-pyrimidine]-8-carboxamide], the IC50 came to 1.5 µM. On the same count and under the same terms, next, `C[C@@H]1CN2c3c(cc4c(C(=O)N5CCC(F)(F)CC5)noc4c3F)CC3(C(=O)NC(=O)NC3=O)[C@H]2[C@H](C)O1` (relative stereo) [Example 157, (2R,4S,4aS)-rel-8-(4,4-difluoropiperidine-1-carbonyl)-11-fluoro-2,4-dimethyl-2,4,4a,6-tetrahydro-1H,1′H-spiro[isoxazolo[4,5-g][1,4]oxazino[4,3-a]quinoline-5,5′-pyrimidine]-2′,4′,6′(3′H)-trione]: 6.4 µM; `C[C@@H]1CN2c3c(cc4c(C(=O)NC5CN(C)C5)noc4c3F)CC3(C(=O)NC(=O)NC3=O)[C@H]2[C@H](C)O1` (relative stereo) [Example 159, (2R,4S,4aS)-rel-11-fluoro-2,4-dimethyl-N-(1-methylazetidin-3-yl)-2′,4′,6′-trioxo-2,2′,3′,4,4a,4′,6,6′-octahydro-1H,1′H-spiro[isoxazolo[4,5-g][1,4]oxazino[4,3-a]quinoline-5,5′-pyrimidine]-8-carboxamide]: 1.4 µM.

The term IC50 denotes the concentration needed to halve the response being measured.
